Data published in PubChem BioAssay (NCI).
Where “and” joins values, the source holds several entries; their conditions need not be identical. Equal entries are not always repeated.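 Results reflect a 48-hour exposure of cells in 96-well plates to compound at five concentrations. GI50 is the concentration that inhibits growth by half. TGI is the concentration that stops growth completely.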

Columns and labels:
Test in all cases: NCI-60 cell line screen, 48 h
[1] = test system: A549 NSCLC
[2] = test system: HCC-2998 colon
[3] = test system: HOP-62 NSCLC
[4] = test system: HOP-92 NSCLC
[5] = test system: NCI-H226 lung
[6] = test system: OVCAR-3 ovarian
[7] = test system: OVCAR-5 ovarian
[8] = test system: SK-OV-3 ovarian
[9] = test system: TK-10 renal
[10] = test system: UACC-257 melanoma

Row | Compound | TGI [1] | TGI [2] | TGI [3] [µM] | TGI [4] | TGI [5] [µM] | TGI [6] | TGI [7] [µM] | TGI [8] [µM] | TGI [9] [µM] | TGI [10] | GI50 [1] [µM] | GI50 [2] [µM] | GI50 [3] [µM] | GI50 [4] | GI50 [5] | GI50 [6] [µM] | GI50 [7] [µM] | GI50 [8] | GI50 [9] [µM] | GI50 [10]
1 | CC(=O)O/C=C(/C=C/OC(C)=O)C(C/C=C(\C)C#CC=C(C)C)OC(C)=O (stereo not given) | > 100 µM | > 100 µM | > 100 | 91.3 µM | > 100 | 68.6 µM | > 100 | > 100 | > 100 | > 100 µM | – | – | – | – | – | – | – | – | – | –
2 | CCOc1ccccc1NC(=O)C(=O)CC(=O)c1c(C)n([O-])c2ccccc2[n+]1=O | > 100 µM | > 100 µM | > 100 | > 100 µM | > 100 | 75.8 µM | > 100 | > 100 | > 100 | > 100 µM | – | – | – | – | – | – | – | – | – | –
3 | Cc1cc(-c2ncc(CC(=O)Nc3ccc(-c4cnccn4)cn3)cc2C)ccn1 | > 100 µM | > 100 µM | > 100 | 81.8 µM | > 100 | > 100 µM | > 100 | > 100 | > 100 | > 100 µM | 36.7 | > 100 | 33.5 | 12 µM | 13.7 µM | 41.2 | 26.3 | > 100 µM | 16.4 | 16.6 µM
4 | CC(=O)n1c(COS(C)(=O)=O)nc2ccccc21 | > 100 µM | > 100 µM | > 100 | > 100 µM | > 100 | > 100 µM | > 100 | – | > 100 | > 100 µM | – | – | – | – | – | – | – | – | – | –
5 | COC(=O)N[C@H]1CCc2c(Br)c(OC)c(OC)c(OC)c2-c2ccc(SC)c(=O)cc21 | > 52.6 µM | 11.5 µM | > 100 | 5.17 µM | 10.8 | < 0.01 µM | > 39.6 | > 100 | > 85.9 | 61.2 µM | < 0.01 | < 0.01 | < 0.01 | < 0.0171 µM | < 0.01 µM | < 0.01 | < 0.01 | < 0.01 µM | 9.63 | 11.4 µM
6 | CN1CCN(CN2C(=O)C3C4C=CC(C3C2=O)C2C3C(=O)N(CN5CCN(C)CC5)C(=O)C3C42)CC1 (stereo not given) | 90.5 µM and 57.5 µM and 36.2 µM | 89.2 µM and 51.5 µM and 79 µM | > 100 | 94.8 µM and > 100 µM | > 100 | 48.2 µM and 57.6 µM and 75.5 µM | > 100 | > 100 | > 100 | 84.4 µM and 54.3 µM and > 100 µM | – | – | – | 35.7 µM and > 96.5 µM and > 100 µM | 33.5 µM and > 57.7 µM and 76.8 µM | – | – | 37.4 µM and 34.1 µM and 80.1 µM | – | 35.7 µM and 25 µM and 62.2 µM
7 | COc1ccc2c(c1)[nH]c(=O)c1c3cc(C)c(C)cc3cn21 | 1.32 µM | 0.0802 µM | 1.9 | 2.32 µM | 21.7 | < 0.0143 µM | 2.92 | 4.59 | 1.27 | 26.4 µM | < 0.0185 | 0.0235 | < 0.0185 | 0.485 µM | 0.389 µM | < 0.01 | 0.0561 | < 0.0194 µM | 0.32 | 12.8 µM
8 | Cc1ccc(OCC(=O)N2N=C(c3ccccc3)CC2(O)c2ccccc2)cc1 (stereo not given) | 82.8 µM | > 100 µM | 46 | > 100 µM | 52.5 | > 100 µM | 32.7 | > 100 | > 100 | > 100 µM | – | – | – | – | – | – | – | – | – | –
9 | O=C(CCCCCCSc1nc(-c2ccccc2)cc(-c2ccc(Cl)cc2)n1)NO | 6.23 µM | 7.19 µM | 5.24 | 5.44 µM | 11.8 | 6.86 µM | 5.42 | 6.04 | 13.5 | 11.4 µM | 2.16 | 2.44 | 1.96 | 1.75 µM | 2.59 µM | 1.96 | 1.56 | 2.36 µM | 2.78 | 2.67 µM
10 | COc1cc2c(cc1OC)C(=O)/C(=C/c1cccc(OCC(=O)c3ccccc3)c1)C2 | > 100 µM | > 100 µM | > 100 | 27.8 µM | > 100 | > 100 µM | > 100 | > 100 | > 100 | > 100 µM | 26.6 | 73.1 | 35.8 | 0.569 µM | 20.2 µM | 17.1 | 73.9 | 99.2 µM | 57.8 | 49.1 µM
11 | CNC(=O)c1cc(OC2CCC(NC(=O)Nc3ccc(Cl)c(C(F)(F)F)c3)CC2)ccn1 (stereo not given) | 26.6 µM | 19.2 µM | 31.4 | 27.1 µM | 25.6 | 32 µM | 31.1 | 40.1 | 49.2 | 20.3 µM | 4.53 | 7 | 15 | 6.8 µM | 9.99 µM | 10.7 | 12.5 | 18.8 µM | 18.4 | 5.68 µM
12 | Cc1ccc(CNc2c3ccccc3nc3ccccc23)cc1 | 5.05 µM | 3.74 µM | 16.8 | 5.05 µM | 5.12 | 6.22 µM | 8.08 | 10.8 | 12.6 | 5.06 µM | 1.94 | 1.72 | 3.58 | 1.36 µM | 1.87 µM | 2.42 | 1.99 | 2.59 µM | 2.97 | 2.17 µM
13 | COc1cc(/C(C#N)=C/c2ccc3c(c2OC)OCO3)cc2c1OCO2 | > 100 µM | 10.8 µM | 14.3 | 15.7 µM | 36.4 | 0.0774 µM | > 80.2 | 14.2 | 37.2 | > 100 µM | 0.0879 | 0.182 | 0.138 | 0.211 µM | 0.603 µM | 0.0272 | 0.823 | 0.113 µM | 0.982 | 0.794 µM
14 | N#Cc1c(-c2nc3ccccc3s2)c(=O)oc2cc(O)ccc12 | > 100 µM | > 100 µM | 57.3 | 46.3 µM | > 100 | > 100 µM | > 100 | – | > 100 | > 100 µM | – | – | – | – | – | – | – | – | – | –
15 | CCOC(=O)C(=O)Nc1nc2c(s1)C(=O)c1ccccc1C2=O | 34.4 µM | 31.6 µM | 33.5 | 25.3 µM | 34.4 | 18.6 µM | 42.5 | – | – | 31.4 µM | – | – | – | – | – | – | – | – | – | –
